Test results published in patent US11596639B2, “Substituted indole Mcl-1 inhibitors” (Vanderbilt University, priority 2016, dated 2023).
Where two headings read alike, the source gives them in different places.

Columns and labels:
Mcl-1 = Mcl-1 (Homo sapiens (Human), UniProt Q07820); experiment: Fluorescence polarization anisotropy (FPA) competition assay, FITC-Bak or FITC-Bim BH3 peptide; type: binding; conditions: read-out: Ki for Inhibition of Mcl-1 by FPA assay
[1] = tested on: H929 human cancer cell lines; experiment: Cellular viability / proliferation (Cell TiterGlo, 72 h); type: cell-based
Outline: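 Cells were seeded at 1,000 cells/well in medium with 10% FBS and dosed 24 h later with a 2-fold serial dilution of compound (top concentration 50 μM, final DMSO <1%).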

[2] = Homo sapiens, NCI-H929, 72 h, read-out: GI50 on cellular proliferation of H929 human cancer cell lines, H929 cells, 72 h, Cell TiterGlo, 10% FBS

Sequence of Mcl-1 (Q07820 172-327): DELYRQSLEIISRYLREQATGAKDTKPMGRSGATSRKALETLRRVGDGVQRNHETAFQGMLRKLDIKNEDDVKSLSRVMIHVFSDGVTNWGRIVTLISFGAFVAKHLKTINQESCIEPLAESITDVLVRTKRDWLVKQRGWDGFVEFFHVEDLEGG

SMILES	Ki (Mcl-1)	GI50 [1, 2]	GI50 ([1]; read-out: GI50 on cellular proliferation of H929 human cancer cell lines, H929 cells, 72 h, Cell TiterGlo, 10% FBS)	GI50 ([1]; H929 cells, 72 h, Cell TiterGlo, 10% FBS, read-out: GI50 on cellular proliferation of H929 human cancer cell lines)
Cc1cc(OCCCc2c3n(c4c(-c5c(C)n[nH]c5C)c(Cl)ccc24)[C@H](C)CN(c2cc(C(=O)O)cc4c2ccn4C)C3=O)cc(C)c1Cl [Example 71, (R)-4-(7-chloro-10-(3-(4-chloro-3,5-dimethylphenoxy)propyl)-6-(3,5-dimethyl-1H-pyrazol-4-yl)-4-methyl-1-oxo-3,4-dihydropyrazino[1,2-a]indol-2(1H)-yl)-1-methyl-1H-indole-6-carboxylic acid]	< 1 nM	3300 nM		
Cc1cc(OCCCc2c3n(c4c(-c5c(C)nn(C)c5C)c(Cl)ccc24)[C@H](C)CN(c2nn(C)c4cc(C(=O)O)ccc24)C3=O)cc(C)c1Cl [Example 48, (R)-3-(7-chloro-10-(3-(4-chloro-3,5-dimethylphenoxy)propyl)-4-methyl-1-oxo-6-(1,3,5-trimethyl-1H-pyrazol-4-yl)-3,4-dihydropyrazino[1,2-a]indol-2(1H)-yl)-1-methyl-1H-indazole-6-carboxylic acid]	< 1 nM	800 nM		
Cc1cc(OCCCc2c3n(c4c(-c5c(C)n[nH]c5C)c(Cl)ccc24)[C@H](C)CN(c2cn(C)c4cc(C(=O)O)ccc24)C3=O)cc(C)c1Cl [Example 109, (R)-3-(7-chloro-10-(3-(4-chloro-3,5-dimethylphenoxy)propyl)-6-(3,5-dimethyl-1H-pyrazol-4-yl)-4-methyl-1-oxo-3,4-dihydropyrazino[1,2-a]indol-2(1H)-yl)-1-methyl-1H-indole-6-carboxylic acid]	< 1 nM	710 nM		
Cc1cc(OCCCc2c3n(c4c(-c5c(C)ncnc5C)c(Cl)ccc24)CCCN(c2cc(C(=O)O)cc4c2OCCO4)C3=O)cc(C)c1Cl [Example 154, 5-[8-Chloro-11-[3-(4-chloro-3,5-dimethyl-phenoxy)propyl]-7-(4,6-dimethylpyrimidin-5-yl)-1-oxo-4,5-dihydro-3H-[1,4]diazepino[1,2-a]indol-2-yl]-2,3-dihydro-1,4-benzodioxine-7-carboxylic acid]	< 1 nM	1300 nM		
Cc1cc(OCCCc2c3n(c4c(-c5c(C)ncnc5C)c(Cl)ccc24)[C@H](C)CN(c2cccc4c(C(=O)O)cccc24)C3=O)cc(C)c1Cl [Example 148, 5-[(4R)-7-chloro-10-[3-(4-chloro-3,5-dimethyl-phenoxy)propyl]-6-(4,6-dimethylpyrimidin-5-yl)-4-methyl-1-oxo-3,4-dihydropyrazino[1,2-a]indol-2-yl]naphthalene-1-carboxylic acid]	< 1 nM	650 nM		
Cc1cc(OCCCc2c3n(c4c(-c5c(C)nn(C)c5C)c(Cl)ccc24)[C@H](C)CN(c2cc(C(=O)O)c4cnn(C(C)C)c4c2)C3=O)cc(C)c1Cl [Example 131, 6-[(4R)-7-chloro-10-[3-(4-chloro-3,5-dimethyl-phenoxy)propyl]-4-methyl-1-oxo-6-(1,3,5-trimethylpyrazol-4-yl)-3,4-dihydropyrazino[1,2-a]indol-2-yl]-1-isopropyl-indazole-4-carboxylic acid]	< 1 nM	1900 nM		
Cc1cc(OCCCc2c3n(c4c(-c5c(C)nn(C)c5C)c(Cl)ccc24)[C@H](C)CN(c2cn(C)c4ccc(-c5cnn(C)c5)cc24)C3=O)cc(C)c1Cl [Example 391, (R)-7-Chloro-10-(3-(4-chloro-3,5-dimethylphenoxy)propyl)-4-methyl-2-(1-methyl-5-(1-methyl-1H-pyrazol-4-yl)-1H-indol-3-yl)-6-(1,3,5-trimethyl-1H-pyrazol-4-yl)-3,4-dihydropyrazino[1,2-a]indol-1(2H)-one]	2.1 nM	370 nM		
Cc1cc(OCCCc2c3n(c4c(-c5c(C)nn(C)c5C)c(Cl)ccc24)[C@H](C)CN(c2c(C)n(C)c4ccc(C(=O)O)cc24)C3=O)cc(C)c1Cl [Example 275, 3-[(4R)-7-chloro-10-[3-(4-chloro-3,5-dimethyl-phenoxy)propyl]-4-methyl-1-oxo-6-(1,3,5-trimethylpyrazol-4-yl)-3,4-dihydropyrazino[1,2-a]indol-2-yl]-1,2-dimethyl-indole-5-carboxylic acid]	< 1 nM	370 nM		
Cc1cc(OCCCc2c3n(c4c(-c5c(C)nn(C)c5C)c(Cl)ccc24)CCCN(c2cc(C(=O)O)c4c(Cl)cn(C)c4c2)C3=O)cc(C)c1Cl [Example 3, 3-Chloro-6-(8-chloro-11-(3-(4-chloro-3,5-dimethylphenoxy)propyl)-1-oxo-7-(1,3,5-trimethyl-1H-pyrazol-4-yl)-4,5-dihydro-1H-[1,4]diazepino[1,2-a]indol-2(3H)-yl)-1-methyl-1H-indole-4-carboxylic acid]	1.1 nM	6600 nM		
Cc1cc(OCCCc2c3n(c4c(-c5c(C)nn(C)c5C)c(Cl)ccc24)[C@H](C)CN(c2cccc4cc(C(=O)O)n(C)c24)C3=O)cc(C)c1Cl [Example 178, (R)-7-(7-Chloro-10-(3-(4-chloro-3,5-dimethylphenoxy)propyl)-4-methyl-1-oxo-6-(1,3,5-trimethyl-1H-pyrazol-4-yl)-3,4-dihydropyrazino[1,2-a]indol-2(1H)-yl)-1-methyl-1H-indole-2-carboxylic acid]	< 1 nM	< 200 nM		
Cc1cc(OCCCc2c3n(c4c(-c5c(C)nn(C)c5C)c(Cl)ccc24)[C@H](C)CN(c2cc(C(=O)O)c4ncccc4c2)C3=O)cc(C)c1Cl [Example 138, (R)-6-(7-chloro-10-(3-(4-chloro-3,5-dimethylphenoxy)propyl)-4-methyl-1-oxo-6-(1,3,5-trimethyl-1H-pyrazol-4-yl)-3,4-dihydropyrazino[1,2-a]indol-2(1H)-yl)quinoline-8-carboxylic acid]	2.2 nM	4800 nM		
Cc1cc(OCCCc2c3n(c4c(-c5c(C)nn(C)c5C)c(Cl)ccc24)[C@H](C)CN(c2cccc4cc(C(=O)O)oc24)C3=O)cc(C)c1Cl [Example 194, (R)-7-(7-Chloro-10-(3-(4-chloro-3,5-dimethylphenoxy)propyl)-4-methyl-1-oxo-6-(1,3,5-trimethyl-1H-pyrazol-4-yl)-3,4-dihydropyrazino[1,2-a]indol-2(1H)-yl)benzofuran-2-carboxylic acid]	< 1 nM	2300 nM		
Cc1cc(OCCCc2c3n(c4c(-c5c(C)nn(C)c5C)c(Cl)ccc24)[C@H](C)CN(c2cccc4c2c(C(=O)O)nn4C)C3=O)cc(C)c1Cl [Example 126, 4-[(4R)-7-chloro-10-[3-(4-chloro-3,5-dimethyl-phenoxy)propyl]-4-methyl-1-oxo-6-(1,3,5-trimethylpyrazol-4-yl)-3,4-dihydropyrazino[1,2-a]indol-2-yl]-1-methyl-indazole-3-carboxylic acid]	< 1 nM		5100 nM	
Cc1cc(N2C[C@@H](C)n3c(c(CCCOc4cc(C)c(Cl)c(C)c4)c4ccc(Cl)c(-c5c(C)nn(CC6CCOCC6)c5C)c43)C2=O)c2c(c1)cc(C(=O)O)n2C [Example 452, (R)-7-(7-Chloro-10-(3-(4-chloro-3,5-dimethylphenoxy)propyl)-6-(3,5-dimethyl-1-((tetrahydro-2H-pyran-4-yl)methyl)-1H-pyrazol-4-yl) 4-methyl-1-oxo-3,4-dihydropyrazino[1,2-a]indol-2(1H)-yl)-1,5-dimethyl-1H-indole-2-carboxylic acid]	2.2 nM	380 nM		
Cc1cc(OCCCc2c3n(c4c(-c5c(C)nn(CCN6CCCC6)c5C)c(Cl)ccc24)[C@H](C)CN(c2cn(C)c4cc(C(=O)O)ccc24)C3=O)cc(C)c1Cl [Example 306, (R)-3-(7-chloro-10-(3-(4-chloro-3,5-dimethylphenoxy)propyl)-6-(3,5-dimethyl-1-(2-(pyrrolidin-1-yl)ethyl)-1H-pyrazol-4-yl)-4-methyl-1-oxo-3,4-dihydropyrazino[1,2-a]indol-2(1H)-yl)-1-methyl-1H-indole-6-carboxylic acid]	1.3 nM	600 nM		
Cc1cc(N2C[C@@H](C)n3c(c(CCCOc4cc(C)c(Cl)c(C)c4)c4ccc(Cl)c(-c5c(C)nn(C)c5C)c43)C2=O)c2c(c1)cc(C(=O)O)n2CC1CCN(C)C1 (stereo partly drawn) [Example 330, 7-((R)-7-Chloro-10-(3-(4-chloro-3,5-dimethylphenoxy)propyl)-4-methyl-1-oxo-6-(1,3,5-trimethyl-1H-pyrazol-4-yl)-3,4-dihydropyrazino[1,2-a]indol-2(1H)-yl)-5-methyl-1-((1-methylpyrrolidin-3-yl)methyl)-1H-indole-2-carboxylic acid]	1.3 nM	2300 nM		
Cc1cc(OCCCc2c3n(c4c(-c5c(C)nn(C)c5C)c(Cl)ccc24)[C@H](C)CN(c2ccc4cc(C(=O)O)n(C)c4c2)C3=O)cc(C)c1Cl [Example 110, (R)-6-(7-Chloro-10-(3-(4-chloro-3,5-dimethylphenoxy)propyl)-4-methyl-1-oxo-6-(1,3,5-trimethyl-1H-pyrazol-4-yl)-3,4-dihydropyrazino[1,2-a]indol-2(1H)-yl)-1-methyl-1H-indole-2-carboxylic acid]	< 1 nM	790 nM		
COc1ccc(N2C[C@@H](C)n3c(c(CCCOc4cc(C)c(Cl)c(C)c4)c4ccc(Cl)c(-c5c(C)nn(C)c5C)c43)C2=O)c2cc(C(=O)O)n(C)c12 [Example 344, (M, R)-4-(7-Chloro-10-(3-(4-chloro-3,5-dimethylphenoxy)propyl)-4-methyl-1-oxo-6-(1,3,5-trimethyl-1H-pyrazol-4-yl)-3,4-dihydropyrazino[1,2-a]indol-2(1H)-yl)-7-methoxy-1-methyl-1H-indole-2-carboxylic acid]	< 1 nM			1300 nM
Cc1cc(OCCCc2c3n(c4c(-c5c(C)nn(C)c5C)c(Cl)ccc24)[C@H](C)CN(c2cccc4c2C(=O)CC4)C3=O)cc(C)c1Cl [Example 195, (R)-7-Chloro-10-(3-(4-chloro-3,5-dimethylphenoxy)propyl)-4-methyl-2-(3-oxo-2,3-dihydro-1H-inden-4-yl)-6-(1,3,5-trimethyl-1H-pyrazol-4-yl)-3,4-dihydropyrazino[1,2-a]indol-1(2H)-one]	3.6 nM	1800 nM		
